Assay results from patent US20240382552A1, “COMPOSITION FOR PREVENTING, AMELIORATING OR TREATING SLEEP DISORDER OR INSOMNIA, CONTAINING EXTRACT OF ROASTED CITRUS BYPRODUCT AS ACTIVE INGREDIENT” (priority 2021, published 2024).
Counter-ions that a name gives are not always drawn. Marks after values point to notes of the source that are not given here.

Tests used:
C57BL/6N mice = experiment: Sleep architecture analysis (EEG/EMG); type: in vivo; conditions: Example 1 100 mg/kg, Example 2 300 mg/kg, zolpidem 10 mg/kg p.o.
Method: After the accommodation period of 1 week, electrodes were inserted into the
C57BL/6N mice for measurement of electroencephalograms (EEGs) and electromyograms (EMGs). After anesthetizing the mouse with pentobarbital (50 mg/kg, i.p.), the head was fixed in a stereotaxic instrument. After incising the subcutaneous connective tissue, a mouse EEG/EMG Headmount (Pinnacle Technology Inc, Oregon, USA) was inserted for EEG and EMG recording. After fixing with dental cement followed by suturing and disinfection, antibiotics were injected for 3 days to prevent inflammation. The mice were allowed to recover for 7 days. For accommodation to the measurement environment, the recording apparatus was connected from 4 days prior to the measurement. After orally administering the sample and waiting for 5 minutes for sedation, EEG and EMG were recorded for 24 hours from 17:00 using PAL-8200 (Pinnacle Technology Inc., Oregon, USA). Sampling rate was set at 200 Hz (epoch time: 10 s). Filtering range was 0.1-25 Hz for EEG and 10-100 Hz for EMG. Sleep architecture was analyzed according to the fast Fourier transform (FFT) algorithm using SleepSign (Ver. 3.0, Kissei Comtec, Nagono, Japan).
Sleep architecture analysis was conducted to evaluate the effect of the roasted citrus byproduct extracts according to an exemplary embodiment of the present disclosure on the quantity and quality of sleep. […]

[1] = test system: mice to which a sleeping dose of pentobarbital (45 mg/kg, i.p.) was administered; experiment: Pentobarbital-induced sleep test; conditions: pentobarbital 45 mg/kg i.p. 45 min after oral sample; DH 30 mg/kg, lime extracts 100 mg/kg, lemon extracts 300 mg/kg; n=10

Compound: Cc1ccc(-c2nc3ccc(C)cn3c2CC(=O)N(C)C)cc1 [zolpidem]
- delta activity during non-REM sleep (C57BL/6N mice): significantly decreased delta activity
- time after oral administration for which NREM sleep was significantly increased (C57BL/6N mice; 24 h EEG recording): 6 h

Compound: CN(C)CCC=C1c2ccccc2COc2ccccc21 [Doxepin hydrochloride (DH), Doxepin hydrochloride]
- Sleep duration (min) [1]: 121.2*** min
- Sleep latency (min) [1]: 2.9*** min
